Five molecules from ChEMBL document CHEMBL1128242, “Polyiodinated triglyceride analogs as potential computed tomography imaging agents for the liver” (J Med Chem, 1995) can be followed below.

Common to all, as to format: ADME, organism-based
Series [1] concerns Rattus norvegicus. The series can be described thus: Distribution of radioactivity was determined in plasma at 24 hr after intravenous administration of [125I]-labeled 2-oleoglycerol 1,3-Bis-[omega-(3-amino-2,4,6-triiodophenyl)alkanoates] in rats. Set-up: unit not given here. The following applies: in vivo.
Series [2] deals with Rattus norvegicus. The series can be described thus: Polyacrylamide Gel Electrophoresis (PAGE) to determined the concentration of low density lipoprotein (LDL) in rats after iv administration of [125I]-labeled 2-Oleolyl 1,3-disubstituted triglycerols was reported. The following applies: in vivo.
Series [3] relates to Rattus norvegicus. The series can be described thus: Distribution of radioactivity was determined in spleen at 30 min after intravenous administration of [125I]-labeled 2-oleoglycerol 1,3-Bis-[omega-(3-amino-2,4,6-triiodophenyl)alkanoates] in rats. Conditions: in vivo, 0.5 h.
For series [4], the system named is Rattus norvegicus. Nature of the series: Distribution of radioactivity was determined in blood at 24 hr after intravenous administration of 1,3-Disubstituted Triacylglycerols in rats. The following applies: in vivo.
Series [5] has as its system Rattus norvegicus. Nature of the series: Analysis of lipid-soluble radioactivity in plasma 0.5 hour after iv administration of [125I]-labeled 2-Oleoyl 1,3-disubstituted Triacylglycerols expressed as %parent compound (by TLC with authentic [125I]-labeled standard) from rat. Conditions: in vivo.
Series [6] deals with Rattus norvegicus. The series can be described thus: Distribution of radioactivity was determined in blood at 24 hr after intravenous administration of [125I]-labeled 2-oleoglycerol 1,3-Bis-[omega-(3-amino-2,4,6-triiodophenyl)alkanoates] in rats. Conditions: in vivo.
Series [7] concerns Rattus norvegicus. The series can be described thus: Distribution of radioactivity was determined in liver at 3h after intravenous administration of [125I]-labeled 2-oleoglycerol 1,3-Bis-[omega-(3-amino-2,4,6-triiodophenyl)alkanoates] in rats. The following applies: in vivo.
Series [8] has as its system Rattus norvegicus. Nature of the series: Distribution of radioactivity was determined in plasma at 3h after intravenous administration of [125I]-labeled 2-oleoglycerol 1,3-Bis-[omega-(3-amino-2,4,6-triiodophenyl)alkanoates] in rats. The following applies: in vivo.
For series [9], the system named is Rattus norvegicus. Nature of the series: Distribution of radioactivity was determined in blood at 30 min after intravenous administration of 1,3-Disubstituted Triacylglycerols in rats. The following applies: in vivo, 0.5 h.
Series [10] has as its system Rattus norvegicus. The series can be described thus: Distribution of radioactivity was determined in blood at 3h after intravenous administration of 1,3-Disubstituted Triacylglycerols in rats. Conditions: in vivo.
Series [11] concerns Rattus norvegicus. The series can be described thus: Polyacrylamide Gel Electrophoresis (PAGE) to determined the concentration of stacking gel(SG) in rats after iv administration of [125I]-labeled 2-Oleolyl 1,3-disubstituted triglycerols was reported. Conditions: in vivo.
For series [12], the system named is Rattus norvegicus. Nature of the series: Distribution of radioactivity was determined in kidney at 30 min after intravenous administration of [125I]-labeled 2-oleoglycerol 1,3-Bis-[omega-(3-amino-2,4,6-triiodophenyl)alkanoates] in rats. The following applies: in vivo, 0.5 h.
The test system of series [13] is Rattus norvegicus. The series can be described thus: Distribution of radioactivity was determined in spleen at 30 min after intravenous administration of 1,3-Disubstituted Triacylglycerols in rats. The following applies: in vivo, 0.5 h.

Turning to `CCCCCCCC/C=C/CCCCCCCC(=O)OC(COC(=O)CCCCCCc1c(I)cc(I)c(N)c1I)COC(=O)CCCCCCc1c(I)cc(I)c(N)c1I`, the Distribution of radioactivity in the series on Rattus norvegicus [1] came to 0.21; in the series with Rattus norvegicus [3], 21.8 % dose/g; in the series on Rattus norvegicus [4], 2.5 % dose/organ; in the series with Rattus norvegicus [6], 0.22 % dose/g; in the series with Rattus norvegicus [7], 5.84 % dose/g; in the series on Rattus norvegicus [8], 0.29 % dose/g. For the same molecule, the Distribution of radioactivity stood at 6.6 % dose/organ in the series on Rattus norvegicus [9], 2.7 % dose/organ with Rattus norvegicus [10], 0.2 % dose/g in the series with Rattus norvegicus [12] and 10.5 % dose/organ in the series with Rattus norvegicus [13]. Besides, the Radioactivity with Rattus norvegicus [2] is on record as 0.2%; with Rattus norvegicus [11], 28.1%. Besides, the Lipid-soluble radioactivity with Rattus norvegicus [5] was 0.
Take `CCCCCCCC/C=C/CCCCCCCC(=O)OC(COC(=O)Cc1c(I)cc(I)c(N)c1I)COC(=O)Cc1c(I)cc(I)c(N)c1I`: the Distribution of radioactivity with Rattus norvegicus [1] worked out at 0.01; with Rattus norvegicus [3] it was 23.4 % dose/g; in the series on Rattus norvegicus [4] it was 0.2 % dose/organ; with Rattus norvegicus [6], 0.01 % dose/g; in the series with Rattus norvegicus [7] it was 10.3 % dose/g; in the series with Rattus norvegicus [8], 0.07 % dose/g. Further, the Distribution of radioactivity stood at 7.6 % dose/organ in the series on Rattus norvegicus [9], 0.5 % dose/organ with Rattus norvegicus [10], 0.1 % dose/g in the series with Rattus norvegicus [12] and 12 % dose/organ in the series with Rattus norvegicus [13]. Besides, the Radioactivity turned out to be 0.6% with Rattus norvegicus [2] and 95.7% in the series with Rattus norvegicus [11].
For the molecule `CCCCCCCC/C=C/CCCCCCCC(=O)OC(COC(=O)CCCCCc1c(I)cc(I)c(N)c1I)COC(=O)CCCCCc1c(I)cc(I)c(N)c1I`, the Distribution of radioactivity with Rattus norvegicus [1] is 0.14; with Rattus norvegicus [3] it was 24.4 % dose/g; in the series with Rattus norvegicus [4], 1.1 % dose/organ; in the series with Rattus norvegicus [6] it was 0.1 % dose/g; in the series with Rattus norvegicus [7] it was 8.74 % dose/g; in the series with Rattus norvegicus [8] it was 0.24 % dose/g. Moreover, the Distribution of radioactivity worked out at 4.8 % dose/organ with Rattus norvegicus [9], 2.2 % dose/organ in the series with Rattus norvegicus [10], 0.09 % dose/g with Rattus norvegicus [12] and 13.9 % dose/organ in the series on Rattus norvegicus [13]. Moreover, the Radioactivity in the series with Rattus norvegicus [2] was 4.8%; with Rattus norvegicus [11] it was 72.6%. In the series with Rattus norvegicus [5], the Lipid-soluble radioactivity worked out at 82.2.
Regarding `CCCCCCCC/C=C/CCCCCCCC(=O)OC(COC(=O)CCCCc1c(I)cc(I)c(N)c1I)COC(=O)CCCCc1c(I)cc(I)c(N)c1I`, the Distribution of radioactivity in the series with Rattus norvegicus [1] amounted to 0.14; with Rattus norvegicus [3], 17.9 % dose/g; with Rattus norvegicus [4], 1.4 % dose/organ; with Rattus norvegicus [6], 0.14 % dose/g; in the series on Rattus norvegicus [7], 6.94 % dose/g; with Rattus norvegicus [8], 0.09 % dose/g. Besides, the Distribution of radioactivity with Rattus norvegicus [9] worked out at 0.9 % dose/organ; in the series on Rattus norvegicus [10], 0.9 % dose/organ; in the series with Rattus norvegicus [12], 0.05 % dose/g; with Rattus norvegicus [13] it was 9.5 % dose/organ. The Radioactivity in the series on Rattus norvegicus [2] came out at 8.1%; with Rattus norvegicus [11], 65.6%. For the same molecule, in the series on Rattus norvegicus [5], the Lipid-soluble radioactivity is recorded as 42.3.
On to `CCCCCCCC/C=C/CCCCCCCC(=O)OC(COC(=O)C(CC)Cc1c(I)cc(I)c(N)c1I)COC(=O)C(CC)Cc1c(I)cc(I)c(N)c1I` (centres undefined), for which the Distribution of radioactivity in the series on Rattus norvegicus [1] amounted to 0.01; with Rattus norvegicus [3] it was 24.8 % dose/g; in the series with Rattus norvegicus [4], 0.1 % dose/organ; in the series with Rattus norvegicus [6], 0.01 % dose/g; in the series on Rattus norvegicus [7], 9 % dose/g; in the series with Rattus norvegicus [8], 0.03 % dose/g. Also, the Distribution of radioactivity in the series with Rattus norvegicus [9] was 2.6 % dose/organ; with Rattus norvegicus [10], 0.3 % dose/organ; in the series on Rattus norvegicus [12], 0.07 % dose/g; with Rattus norvegicus [13] it was 14.4 % dose/organ. Further, the Radioactivity in the series with Rattus norvegicus [2] amounted to 7.4%; in the series with Rattus norvegicus [11], 83.5%. Moreover, the Lipid-soluble radioactivity in the series with Rattus norvegicus [5] stood at 26.5.
